Measured values from patent US11684652B2, “HMGB1 antagonist treatment of acute lung injury” (THE FEINSTEIN INSTITUTES FOR MEDICAL RESEARCH, priority 2019, dated 2023).
Values joined by “and” are separate entries in the source; they are usually repeats but may differ in a detail not shown here. Identical values can stand only once. “Also recorded” adds a separate entry of the source. Like-named read-outs stand apart in the source and are kept apart here.

Experiments:
[1] = system: influenza virus A/PR/8/34 (PR8); assay: lethal influenza infection model; assay type: in vivo; settings: C57BL/6J mice; K883 100 ug/mouse intraperitoneally for 5 consecutive days from two days after infection; vs vehicle
[2] = system: PAMPs-induced TNF release (LPS, PGN, poly I:C, S100A12); assay: PAMPs-induced TNF release in human macrophages; assay type: cell-based; settings: human primary macrophages, increasing amounts of K883, 16 hours
Description: TNF released was measured.

[3] = system: STZ-induced diabetes; assay: STZ-induced diabetes model; assay type: in vivo; settings: STZ-diabetic mice, repetitive K883 500 μg/mouse, vs PBS
Description: Mice were administered repetitive administration of […] (500 μg/mouse). […] Repetitive administration of […] was therefore shown to be beneficial in STZ-induced diabetes. […] (*: P<0.05 vs. PBS group. N=6-8 mice per group).

[4] = system: CCI-induced neuropathic pain; assay: chronic constriction injury (CCI) of the sciatic nerve neuropathic pain model; assay type: in vivo, rat
Description: The CCI rats each received surgery. […] Mechanical and thermal sensitivity tests were also performed over time. Hargreaves Thermal Hypersensitivity test was administered to the rats as well as Von Frey mechanical hypersensitivity test.
Rats (male Wistar, 150-180 gm, n=6/group) had CCI surgery. […] Two weeks after surgery, thermal (Hargreaves) or mechanical (von Frey) hypersensitivity was assessed. *: P<0.05 vs. PBS group.
In this experiment, male Wistar rats (n=6/group) had CCI surgery. […] Mechanical allodynia was assessed 5 hours later. N=6-8 rats/group. *: p<0.05) vs. HMGB 1 alone. Mechanical and thermal sensitivity tests were also performed over time.

[5] = system: liver ischemia and reperfusion injury; assay: warm liver ischemia and reperfusion (I/R) model; assay type: in vivo, mouse; settings: 6 hours after reperfusion, K883 vs vehicle control; FIGS. 21A-C
Description: […] (SEQ ID NO: 1) (or vehicle control) was administered intraperitoneally at 500 μg/mouse at the time of I/R surgery and euthanized 6 hours later. Serum levels of ALT and AST were reduced in […] (SEQ ID NO: 1)-treated group vs. vehicle controls. *: P<0.05 vs. I/R group. n=5-7 mice/group.

[6] = system: APAP-induced liver injury; assay: APAP-induced liver injury model; assay type: in vivo, mouse
[7] = pharmacokinetics after intravenous administration in rats (LC-MS); settings: IV 1 mg/kg
[8] = stability under acidic conditions (LC-MS); assay type: physicochemical; settings: pH=2, two hours
[9] = system: liver ischemia and reperfusion injury; settings: cited from earlier work
[10] = system: PAMPs-induced TNF release (LPS, PGN, poly I:C, S100A12); settings: Yang 2015; cited from earlier work
[11] = system: APAP-induced liver injury; settings: cited from earlier work

NC(=O)N(CCC(=O)O)NC(=O)[C@H](CO)NC(=O)[C@H](CO)NC(=O)N(N)Cc1ccccc1 [K883]
survival (14 days) after PR8 infection [1]: significant survival
inhibition of TNF release induced by other PAMPs (LPS, PGN, AGE, Poly I:C) [2]: failed to inhibit other PAMPS; also recorded: does not inhibit other PAMPs
hyperglycemia [3]: delays hyperglycemia
insulitis [3]: reduces insulitis
weight gain [3]: improves weight gain
tolerance to repeated treatment ([4]; K883 800 μg/rat IP once daily for three days, evaluated for 2 weeks): did not develop tolerance
Paw Withdrawal Latency ([4]; NO CCI (reference value)): 9.5 ± 1.0 s
CCI-induced thermal (Hargreaves) and mechanical (von Frey) hypersensitivity ([4]; male Wistar rats, K883 800 μg/rat IP once a day for 3 days, vs PBS): ameliorated both mechanical and thermal hypersensitivity; also recorded: improved CCI-induced thermal and mechanical hypersensitivity; also recorded: ameliorated the thermal hypersensitivity
CCI-induced CXCL1, TNF and IL-1β expression (spine) ([4]; spine): reduce CCI-induced CSCL1, TNF and IL-1(3 expression
liver inflammation, H&E (neutrophil infiltration) [5]: reduced inflammation
serum ALT ([6]; 50 ugs/mouse of K883, vs vehicle controls): reduced serum ALT
liver necrosis (H&E) ([6]; APAP 350 mg/kg IP, K883 50 μg/mouse IP at 2 and 7 hours post-APAP, 24 hours, vs vehicle): reduced liver necrosis
survival (2 weeks) post-APAP ([6]; APAP 400 mg/kg, 50 μg/mouse IP once-a-day for 5 days starting 2 hours post-APAP, 8 in the control group): 14 mice out of 15
AUC∞ ([7]; Mean): 3778 ng·h/mL
AUC∞ ([7]; individual rats, 1 mg/kg): 3808 ng·h/mL and 3751 ng·h/mL
stability under acidic conditions [8]: resistant to acid hydrolysis

NC(=O)[C@H](CCC(=O)O)NC(=O)[C@H](CO)NC(=O)[C@H](CO)NC(=O)[C@@H](N)Cc1ccccc1 [P5779]
liver inflammation, H&E (neutrophil infiltration) ([9]; 6 hours after reperfusion, P5779 vs vehicle control): reduced inflammation
serum levels of ALT and AST ([9]; male C57BL/6 mice, 500 μg/mouse IP at the time of I/R surgery, 6 hours, vs vehicle): reduced
suppression of TNF release in macrophages stimulated by LPS, PGN, Poly I:C, CpG DNA or S100 A12 [10]: not suppress TNF release
liver necrosis (H&E) ([11]; APAP 350 mg/kg, P5779 50 or 500 μg/mouse IP at 2 and 7 hours post-APAP, vs scrambled control peptide): reduced liver necrosis
percent survival (2 weeks) post-APAP ([11]; APAP 400 mg/kg, P5779 500 μg/mouse IP once a day for 5 days starting 2 hours post-APAP): significantly improved
